The results in this text go back to publication PMC6787163, “Systematic Dual Targeting of Dendritic Cell C-Type Lectin Receptor DC-SIGN and TLR7 Using a Trifunctional Mannosylated Antigen” (Frontiers in Chemistry, 2019).

The structures appear in SMILES notation.

In test [1] the test system is moDCs. In words: Internalization of biotinylated hexavalent clusters by moDCs (flow cytometry). The format is cell-based, human. As for the experimental part: For the internalization, the moDCs were incubated with clusters b6, c6, d6, and e6 for 1 h at 4°C, where after unbound ligands were washed away with ice-cold medium. Warm medium was added to the moDCs, and samples were taken at the indicated time points and put on ice. Upon staining the moDCs with fluorophore-conjugated streptavidin, we could measure the signal loss of the membrane via flow cytometry. To exclude ligand-receptor dissociation before internalization, the moDCs were fixed under gentle conditions, hereby inhibiting receptor-mediated endocytosis. On fixed moDCs the clusters remained at the surface, as no signal loss could be detected (Supplementary Figure 1D). […] The di-mannoside clusters (b6, c6, and d6) were internalized relatively fast, with a 50% uptake within 5 min (Figure 5B). The tri-mannoside cluster e6 however remained longer at the membrane surface and only a 25% uptake was seen after 30 min. Similar results were seen using a pH-sensitive fluorophore. In acidic environments, such as the endosomes and lysosomes, the fluorescence of this dye increases. Pre-complexed clusters mirrored the accelerated uptake of the di-mannoside clusters over the e6 cluster (Supplementary Figure 1E). Although the DC-SIGN mediated uptake mechanism is known (Cambi et al., [2009]), the initiation trigger for endocytosis upon DC-SIGN-ligand binding remains unclear. Recognition of the di-mannoside clusters could induce signaling leading to accelerated uptake, whereas the tri-mannoside cluster could trigger a different signaling pathway. Nonetheless, the clusters harboring the smaller mannosides are preferred. Although the binding affinity of the clusters ranged from 0.9 to 6.6 μM, the di-mannosides induce more rapid DC-SIGN internalization over the tri-mannosides, and can thus increase intracellular peptide concentrations more efficiently for further antigen processing and presentation.
Immature day 5 moDCs were harvested and washed with cold HBSS (Thermo Fischer), after which half of the moDCs were gently fixed for 20 min at RT with 1% PFA in PBS. Afterwards, 20 μM of the different biotinylated mannose-clusters in cold HBSS were added. The moDCs were incubated for 1 h on ice, and washed in cold HBSS. Subsequently, warm HBSS was added to the cells, and cells were incubated at 37°C in a shaking heating block. At the indicated time points, a sample of the cells was taken and put on ice. After the last time point, the cells were stained with Streptavidin-Alexa647 (Thermo Fisher), measured using flow cytometry (CyAn™ ADP with Summit™ Software), and further analyzed using FlowJo v10. The same procedure was used for internalization with pHrodo^TM Red Avidin (Thermo Fischer). The different biotinylated mannose-clusters were however incubated with pHrodo-Avidin (ratio 2:1) for 15 min at 37°C, prior to moDC exposure. The fluorescence upon internalization was measured using flow cytometry (BD LSRFortessa™ X-20 with FACSDiva Software), and further analyzed using FlowJo v10.

Test [2] addresses T1, DC-SIGN S-ECD (Homo sapiens, UniProt Q9NNX6).
T1 construct: The ECD of DC-SIGN (residues 66–404) was overexpressed and purified as previously described; made in house
T1 sequence (Q9NNX6 66-404): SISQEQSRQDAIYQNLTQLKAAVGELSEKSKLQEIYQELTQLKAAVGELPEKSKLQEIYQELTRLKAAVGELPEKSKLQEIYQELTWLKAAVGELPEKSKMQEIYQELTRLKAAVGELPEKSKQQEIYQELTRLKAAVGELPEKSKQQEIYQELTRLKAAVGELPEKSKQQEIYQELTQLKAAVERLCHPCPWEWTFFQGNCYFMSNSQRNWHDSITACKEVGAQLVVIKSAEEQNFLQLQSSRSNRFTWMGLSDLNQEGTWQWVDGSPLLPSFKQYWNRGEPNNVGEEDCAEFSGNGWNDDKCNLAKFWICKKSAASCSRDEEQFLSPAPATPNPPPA
In words: SPR direct interaction assay on oriented DC-SIGN S-ECD surface. The format is binding. The note with it: for Kd: SPR direct interaction, oriented tetrameric DC-SIGN ECD surface, apparent Kd, read-out: Kdapp. The protocol:
The affinity of the clusters for the extracellular domain (ECD) of the DC-SIGN receptor (DC-SIGN ECD) was estimated via surface plasmon resonance (SPR) assays (Tabarani et al., [2009]). The apparent Kd was calculated in direct interaction mode using a surface functionalized in an oriented manner with DC-SIGN ECD. In this assay, tetrameric DC-SIGN ECD is attached to the surface of the sensor chip via the N-terminus of its neck oligomerization domain, thus presenting its four carbohydrate recognition domains toward the solvent, realistically mimicking the presentation of the receptor on cell surface (Porkolab et al., [2019]). For some of the low affinity ligands, in the mM range, it was not possible to determine their affinity with this assay, and therefore a competition experiment was performed providing IC50 values (Timpano et al., [2008]) (Figure 3A). […] When comparing equivalent clusters, the α1,2-di-mannoside (B series) bound with the highest affinity (Figure 3A). […] A potential explanation for this effect could be that the spacing of clusters is more important for the larger tri-mannosides.
The direct interaction experiments were executed on a T200 Biacore with a CM3 series S sensor chip. Contrary to the competition assay described above, in this test, DC-SIGN ECD used harbors a StreptagII in its N-terminus (DC-SIGN S-ECD) to allow its capture and functionalization onto the surface in an oriented manner. Flow cells were functionalized as previously described (Porkolab et al., [2019]). Briefly, after EDC/NHS activation, flow cells were functionalized with streptactin protein in a first step. Flow cell 1 was used as control, while other flow cells were, in a second round of activation, functionalized with 100 μg/mL of a DC-SIGN S-ECD up to a final density ranging between 2,500 and 3,000 RU, via tag specific capture and linkage by amine coupling chemistry simultaneously. The compounds were injected in running buffer of 25 mM Tris pH 8, 150 mM NaCl, 4 mM CaCl2, 0.05% Tween 20 onto the surface at increasing concentrations with a flow rate of 30 μL/min. The ligand titration led to the determination of an apparent Kd value. The data was analyzed in BIAcore BIAevaluation software for direct interaction 1:1 calculation assuming that the Kd will reflect the affinity of the ligands (glycoclusters) for the DC-SIGN oriented surface used as a whole.

`CC(=O)N[C@@H](CCCCn1cc(CO[C@H]2O[C@H](CO)[C@@H](O)[C@H](O[C@H]3O[C@H](CO)[C@@H](O)[C@H](O)[C@@H]3O)[C@@H]2O)nn1)C(=O)N[C@@H](CCCCn1cc(CO[C@H]2O[C@H](CO)[C@@H](O)[C@H](O[C@H]3O[C@H](CO)[C@@H](O)[C@H](O)[C@@H]3O)[C@@H]2O)nn1)C(=O)N[C@@H](CCCCn1cc(CO[C@H]2O[C@H](CO)[C@@H](O)[C@H](O[C@H]3O[C@H](CO)[C@@H](O)[C@H](O)[C@@H]3O)[C@@H]2O)nn1)C(=O)N[C@@H](CCCCn1cc(CO[C@H]2O[C@H](CO)[C@@H](O)[C@H](O[C@H]3O[C@H](CO)[C@@H](O)[C@H](O)[C@@H]3O)[C@@H]2O)nn1)C(=O)N[C@@H](CCCCn1cc(CO[C@H]2O[C@H](CO)[C@@H](O)[C@H](O[C@H]3O[C@H](CO)[C@@H](O)[C@H](O)[C@@H]3O)[C@@H]2O)nn1)C(=O)N[C@@H](CCCCn1cc(CO[C@H]2O[C@H](CO)[C@@H](O)[C@H](O[C@H]3O[C@H](CO)[C@@H](O)[C@H](O)[C@@H]3O)[C@@H]2O)nn1)C(=O)NCC(=O)N[C@@H](CCCCN)C(N)=O` [C6]: in test [1] (20 μM cluster, live moDCs), the “internalization by moDCs (loss of surface streptavidin signal)” value was “rapidly internalized”. For the same compound, the “internalization by moDCs (pHrodo-avidin fluorescence increase)” value in test [1] (clusters pre-complexed with pH-sensitive dye) is “internalized rapidly”. For the same compound, the “uptake by immature moDCs” value in test [1] (within 5 min at 37°C, 20 μM cluster) is 50%. The Kd in test [2] came to 1170 nM.

With `CC(=O)N[C@@H](CCCCn1cc(CO[C@H]2O[C@H](CO[C@H]3O[C@H](CO)[C@@H](O)[C@H](O)[C@@H]3O)[C@@H](O)[C@H](O[C@H]3O[C@H](CO)[C@@H](O)[C@H](O)[C@@H]3O)[C@@H]2O)nn1)C(=O)NCC(=O)N[C@@H](CCCCn1cc(CO[C@H]2O[C@H](CO[C@H]3O[C@H](CO)[C@@H](O)[C@H](O)[C@@H]3O)[C@@H](O)[C@H](O[C@H]3O[C@H](CO)[C@@H](O)[C@H](O)[C@@H]3O)[C@@H]2O)nn1)C(=O)NCC(=O)N[C@@H](CCCCn1cc(CO[C@H]2O[C@H](CO[C@H]3O[C@H](CO)[C@@H](O)[C@H](O)[C@@H]3O)[C@@H](O)[C@H](O[C@H]3O[C@H](CO)[C@@H](O)[C@H](O)[C@@H]3O)[C@@H]2O)nn1)C(=O)NCC(=O)N[C@@H](CCCCN)C(N)=O` [E3], the Kd in test [2] worked out at 2440 nM.

As to `CC(=O)N[C@@H](CCCCn1cc(CO[C@H]2O[C@H](CO)[C@@H](O)[C@H](O)[C@@H]2O[C@H]2O[C@H](CO)[C@@H](O)[C@H](O)[C@@H]2O)nn1)C(=O)NCC(=O)N[C@@H](CCCCn1cc(CO[C@H]2O[C@H](CO)[C@@H](O)[C@H](O)[C@@H]2O[C@H]2O[C@H](CO)[C@@H](O)[C@H](O)[C@@H]2O)nn1)C(=O)NCC(=O)N[C@@H](CCCCn1cc(CO[C@H]2O[C@H](CO)[C@@H](O)[C@H](O)[C@@H]2O[C@H]2O[C@H](CO)[C@@H](O)[C@H](O)[C@@H]2O)nn1)C(=O)NCC(=O)N[C@@H](CCCCN)C(N)=O` [B3], the Kd in test [2] was found to be 19500 ± 500 nM.

As for `CC(=O)N[C@@H](CCCCn1cc(CO[C@H]2O[C@H](CO[C@H]3O[C@H](CO)[C@@H](O)[C@H](O)[C@@H]3O)[C@@H](O)[C@H](O)[C@@H]2O)nn1)C(=O)NCC(=O)N[C@@H](CCCCn1cc(CO[C@H]2O[C@H](CO[C@H]3O[C@H](CO)[C@@H](O)[C@H](O)[C@@H]3O)[C@@H](O)[C@H](O)[C@@H]2O)nn1)C(=O)NCC(=O)N[C@@H](CCCCn1cc(CO[C@H]2O[C@H](CO[C@H]3O[C@H](CO)[C@@H](O)[C@H](O)[C@@H]3O)[C@@H](O)[C@H](O)[C@@H]2O)nn1)C(=O)NCC(=O)N[C@@H](CCCCN)C(N)=O` [D3], in test [2], the Kd is 48700 ± 2570 nM.

With `CC[C@H](NC(=O)[C@H](CC(=O)O)NC(=O)[C@H](CC(C)C)NC(=O)[C@H](CCCNC(=N)N)NC(=O)[C@H](CCC(N)=O)NC(=O)[C@H](C)NC(=O)[C@H](CCC(=O)O)NC(=O)[C@@H](NC(=O)[C@H](Cc1c[nH]c2ccccc12)NC(=O)[C@H](CCC(=O)O)NC(=O)[C@@H]1CCCN1C(=O)[C@H](Cc1ccc(O)cc1)NC(=O)[C@H](CC(C)C)NC(=O)[C@H](CCC(N)=O)NC(=O)[C@H](CCCNC(=N)N)NC(=O)[C@H](CC(N)=O)NC(=O)[C@H](C)NC(=O)[C@@H](NC(=O)[C@@H](NC(=O)[C@@H]1CCCN1C(=O)CNC(=O)[C@@H]1CCCN1C(=O)[C@H](CCC(=O)O)NC(=O)[C@H](CC(C)C)NC(=O)[C@H](Cc1ccc(O)cc1)NC(=O)[C@@H](NC(=O)[C@H](Cc1c[nH]cn1)NC(=O)[C@@H](NC(=O)[C@@H](NC(=O)[C@H](CCCCn1cc(CCC(=O)NCCCC[C@H](NC(=O)CNC(=O)[C@H](CCCCn2cc(CO[C@H]3O[C@H](CO)[C@@H](O)[C@H](O)[C@@H]3O[C@H]3O[C@H](CO)[C@@H](O)[C@H](O)[C@@H]3O)nn2)NC(=O)[C@H](CCCCn2cc(CO[C@H]3O[C@H](CO)[C@@H](O)[C@H](O)[C@@H]3O[C@H]3O[C@H](CO)[C@@H](O)[C@H](O)[C@@H]3O)nn2)NC(=O)[C@H](CCCCn2cc(CO[C@H]3O[C@H](CO)[C@@H](O)[C@H](O)[C@@H]3O[C@H]3O[C@H](CO)[C@@H](O)[C@H](O)[C@@H]3O)nn2)NC(=O)[C@H](CCCCn2cc(CO[C@H]3O[C@H](CO)[C@@H](O)[C@H](O)[C@@H]3O[C@H]3O[C@H](CO)[C@@H](O)[C@H](O)[C@@H]3O)nn2)NC(=O)[C@H](CCCCn2cc(CO[C@H]3O[C@H](CO)[C@@H](O)[C@H](O)[C@@H]3O[C@H]3O[C@H](CO)[C@@H](O)[C@H](O)[C@@H]3O)nn2)NC(=O)[C@H](CCCCn2cc(CO[C@H]3O[C@H](CO)[C@@H](O)[C@H](O)[C@@H]3O[C@H]3O[C@H](CO)[C@@H](O)[C@H](O)[C@@H]3O)nn2)NC(C)=O)C(N)=O)nn1)NC(C)=O)C(C)C)[C@@H](C)O)[C@@H](C)O)C(C)C)[C@@H](C)O)[C@@H](C)O)C(=O)N[C@@H](Cc1c[nH]c2ccccc12)C(=O)N[C@@H](CCCNC(=N)N)C(=O)NCC(=O)N[C@@H](CCCCN)C(N)=O` [B6-gp100], the “decrease of DC-SIGN affinity on conjugation to gp100 or gp100-TLR7L (factor)” value in test [2] (Kd-app of conjugate vs unconjugated cluster) was “about 10”.
